Results reported in PubChem BioAssay (NCI).
Several values for one entry are separate records, joined by “and”; a condition that tells them apart may be missing. Equal entries are not always repeated.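 Step 1: Grow cells in 96-well plates. Step 2: Expose to compound for 48 hours at 5 concentrations. Step 3: Interpolate endpoints linearly; if unreached, use highest concentration. Here, GI50 denotes the concentration required for 50% inhibition of growth. At the TGI there is no net growth.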 Where a SMILES comes first, the peptide text is derived from it. The star is where a group is joined. Boc = CC(C)(C)OC(=O)*

What was measured:
Experiment in all cases: NCI anticancer screen, dose series, 48 h
A549 NSCLC = system: A549 NSCLC
BT-549 breast = system: BT-549 breast
DU-145 prostate = system: DU-145 prostate
HCT-116 colon = system: HCT-116 colon
LOX IMVI melanoma = system: LOX IMVI melanoma
MALME-3M melanoma = system: MALME-3M melanoma
MOLT-4 leukemia = system: MOLT-4 leukemia
OVCAR-3 ovarian = system: OVCAR-3 ovarian
OVCAR-8 ovarian = system: OVCAR-8 ovarian
SR leukemia = system: SR leukemia

Structure (SMILES)	TGI (A549 NSCLC) [µM]	TGI (BT-549 breast) [µM]	TGI (DU-145 prostate) [µM]	TGI (HCT-116 colon) [µM]	TGI (LOX IMVI melanoma) [µM]	TGI (MALME-3M melanoma) [µM]	TGI (MOLT-4 leukemia) [µM]	TGI (OVCAR-3 ovarian) [µM]	TGI (OVCAR-8 ovarian) [µM]	TGI (SR leukemia) [µM]	GI50 (SR leukemia)
COc1ccc(N=C/C=C/Nc2ccc(OC)cc2)cc1	25.2	9.34	32.9	11.8	5.45	23.9	22.9	3.45	9.9	11.2	
Cc1nc2ccccc2n1CCc1nc2ccccc2s1	> 100	> 100	> 100	> 100	> 100	> 100	53.6	> 100	> 100	> 100	
NNC(=O)c1ccccc1NC(=O)/C(=C/c1ccccc1)NC(=O)c1ccccc1	> 100	> 100	> 100	> 100	> 100	> 100	> 100	> 100	> 100		
O=S1(=O)c2ccccc2N2CCCc3cc(Cl)cc1c32	> 100	> 100	> 100	> 100	> 100	> 100	> 100	> 100	> 100	> 100	
COc1ccc(-c2cc(-c3ccc(Nc4ccnc5cc(Cl)ccc45)cc3)nc(N)c2C#N)c2ccccc12	> 100	> 100	> 100	> 100	> 100	> 100	> 100		> 100	> 100	
Cc1cc2ccccc2c[n+]1CC(=O)CC([O-])(C(F)(F)F)C(F)(F)F	> 100		> 100	> 100	> 100	> 100	> 100	> 100	> 100	> 100	
COC(=O)c1c(O)ccc2c1c1c(n2C)C(=O)c2ccccc2C1=O	> 100	45.8	72.7	32.1	> 100	> 100	22.8	> 100	> 100	> 100	
CC1(C)N=C(N)N=C(N)N1c1cccc(CSc2ccccc2)c1	> 100	> 100	> 100	> 100	> 100	> 100	> 100	> 100	> 100	14.2	
O=C1CC(c2cccc(Cl)c2)n2cccc21 (stereo not given)	> 100		> 100	> 100	> 100		> 100	> 100	> 100	> 100	
C=C[C@H]1CN2CC[C@H]1C[C@@H]2[C@@H](O)c1ccnc2ccccc12	> 100	> 100	> 100	> 100	> 100	> 100	> 100	> 100	> 100		
CO[P@]1(=O)O[C@@H](c2ccccc2)[C@H](O)[C@]1(O)c1ccccc1	> 100	> 100	> 100	> 100	> 100	> 100		> 100	> 100		
CCCN(CCC)c1c([N+](=O)[O-])cc(S(N)(=O)=O)cc1[N+](=O)[O-]	32.8			33.8	31.6	33	45.4	31.8	35.1	57.4	
CCCCCCCCOCC1S(=O)(=O)OCCOS1(=O)=O	> 100		> 100	> 100	> 100	> 100	> 100	> 100	> 100	> 100	
O=c1[nH]cnc2c1ncn2[C@H]1CO[C@@H](CO)[C@@H]1O		> 100	> 100	> 100	> 100	> 100	> 100	> 100		> 100	
O=C(c1ccco1)N(C(=S)N1CCN(c2ccccc2)CC1)c1ccccc1	> 100			> 100	> 100	> 100	> 100	> 100	> 100	> 100	
CN(C)c1ccc(/C=N/NC2=N/C(=C\c3ccco3)C(=O)N2)cc1	> 100	> 100	> 100	> 100	> 100	> 100	> 100	> 100	> 100		
CCCCCC(C)C[C@H]1CO[C@H](c2ccc[nH]2)N[C@H]1C(=O)OC (stereo not given in full)	> 100	> 100	> 100	> 100	> 100	> 100	> 100	> 100	> 100		
O=C(O)C(Cc1cccs1)C(=O)O	> 100	> 100	> 100	> 100	> 100	> 100		> 100	> 100	> 100	
Nc1nc(N)c2ncn(CC(CO)CC(c3ccccc3)P(=O)(O)O)c2n1 (stereo not given)	> 100			> 100	> 100	> 100	> 100	> 100	> 100	> 100	> 100 µM and 35 µM
CN(C)CCCOC(=O)C(O)(Cc1ccccc1)C1CC1 (stereo not given)	> 100		> 100	> 100	> 100	> 100	> 100	> 100	> 100	> 100	
O=C1NC(N2CCOCC2)=N/C1=C\c1ccccc1O	> 100		> 100	> 100	> 100	> 100	> 100	> 100	> 100		
COC(=O)CC1C2CC3C(C2=O)C13 (stereo not given)	> 100		> 100	> 100	> 100	> 100	> 100	> 100	> 100	> 100	
COc1cccc(/C=C/C2=NN(c3cccc(S(=O)(=O)O)c3)C3(C2)SCC(=O)N3c2nc3ccccc3s2)c1 (stereo not given)	> 100	> 100	93.1	> 100	40.5	> 100	81.3		> 100	62.9	
CC(NCCS(=O)(=O)O)C(=O)O (stereo not given)	> 100			> 100	> 100	> 100	> 100	> 69.4	> 100		
O=C1CC(O)c2c(Cl)sc(Cl)c21 (stereo not given)	36.2	29.7	54.8	13.8	5.24		> 20.9	12.9	14.2	20.7	

Structure (SMILES)	TGI (A549 NSCLC) [µM]	TGI (BT-549 breast) [µM]	TGI (DU-145 prostate) [µM]	TGI (HCT-116 colon) [µM]	TGI (LOX IMVI melanoma) [µM]	TGI (MALME-3M melanoma) [µM]	TGI (MOLT-4 leukemia) [µM]	TGI (OVCAR-3 ovarian) [µM]	TGI (OVCAR-8 ovarian) [µM]	TGI (SR leukemia) [µM]	GI50 (SR leukemia)
CCCc1ccc(N=Cc2cc(OC)c(OC)c(OC)c2)cc1	> 100			> 100	> 100	> 100	> 100	> 100	> 100	> 100	
CC(=O)C(=C(I)I)c1ccccc1	56.2		60.4	29.4	49.1	25.6	43.2	30.3	39.6	35.5	
CN(C)Cc1cc(C(=O)O)cc(CN(C)C)c1O	> 100	> 100	> 100	> 100	> 100	> 100		> 100	> 100	> 100	
Cc1nnc2c3c(-c4ccccc4)c(-c4ccccc4)oc3nc(N(C)C)n12	> 100		> 100	> 100	> 100		> 100		> 100	67.2	
CC(NC(=O)C(NC(=O)OC(C)(C)C)C(C)C)C(=O)NCC(=O)O (stereo not drawn) (Boc-Val-Ala-Gly-OH; configuration not given here)	> 100	> 100	> 100	> 100		> 100	> 100	> 100	> 100	> 100	
CC(NC(=O)c1ccc(OP(=O)(OCC2=CC(=O)c3ccccc3C2=O)N(C)CCCCCl)cc1)c1ccc(OCC2CCCCC2)c(C(N)=O)c1 (stereo not given)	5.6		16.7	27.5	17.6	3.97	30	17.4	29.6	34.3	
COc1cc(C(C#N)NNC(=O)c2ccccc2O)ccc1O (stereo not given)	> 100			> 100	> 100	> 100	> 100	48.5	> 100	> 100	
CC1=C(C#N)S(=O)(=O)c2c(oc(C)c2C)N1	> 100	> 100	> 100	> 100	> 100	> 100	> 100	> 100	> 100		
CC1=C2N3C[C@@H](n4c(=O)n(C)c(=O)n43)C23CCC1n1c(=O)n(C)c(=O)n13					> 100	> 100	> 100		> 100		
COc1cccc2c1C1=CC(=O)CCC1C(C)(C)O2 (stereo not given)	> 100			> 100	> 100	> 100	> 100	> 100	> 100		
N#CC(c1ccccc1)c1cccc2ccccc12 (stereo not given)	65.1		> 100	> 100	50.8	50.7	57.6	86.6	76.4	39.4	
O=C1CSC2(CCN(CCCN3c4ccccc4Sc4ccc(Cl)cc43)CC2)N1	23.4	26.1	24.2	19.4	16.6	24.4		22.1	23.8		
CSc1n[n+](C)cc(N)c1N	> 100	> 100		> 100	> 100	> 100	> 100	> 100	> 100	> 100	
O=C(CCCC(=O)N1CC(CCl)c2ccc([N+](=O)[O-])cc21)N1CC(CCl)c2ccc([N+](=O)[O-])cc21 (stereo not given)	92.4	> 100	> 100	> 100	> 100		> 100	> 100		60.5	
CC(Nc1cc(Cl)cc(Cl)c1)c1ccncc1 (stereo not given)	> 100	52.7		31.6	24.8	54.9	69.1	35.7	43		
CC(C)n1c(=O)c2nn3c(=O)n(C(C)C)c(=O)c3nn2c1=O	> 100		> 100	> 100	> 100	> 100	> 100	> 100	> 100	> 100	
Cc1ccc(-n2c(C)nc3c2C(=O)c2ccccc2C3=O)cc1	> 100			21.4	97.2	51.5	> 100	73.2	> 100	> 100	
CC(=O)Nc1ccc(Nc2nc(=O)[nH]c(=O)[nH]2)cc1	> 100	> 100	> 100	> 100	> 100	> 100		> 100	> 100	> 100	
COc1cccc(-c2cc(=O)c3cc(C)cnc3[nH]2)c1		> 100	> 100	> 40	> 100	> 100	> 32.4	> 100		95.7	
c1ccc2c(c1)SC1Sc3ccccc3[S+]21 (stereo not given)	> 100	37.2	> 76.3	> 57	45.6	15.5	47.8	46	> 78.3		
NC(=O)c1ccccc1NC(=O)C(=O)C(c1cnc2ccc([N+](=O)[O-])cc2n1)[N+](=O)[O-] (stereo not given)	> 100	> 100		> 100	> 100	> 100	> 100	> 100	> 100		
C=C1CCCCCCCCCCC1S(=O)c1ccccc1 (stereo not given)	> 100		> 100	> 100	91.3	> 100	78.5	> 100		64.8	
CCN(CC)CCNc1ccc(N=Nc2ccc(S(N)(=O)=O)cc2)c2ccccc12	40.5	34	28.2	> 100		36	25.6	5.55	21.3	4.94	
CCN(CC)C(=O)CCCCCCCCC1CO1 (stereo not given)	> 100		> 100	> 100	> 100	> 100	> 100	> 100	> 100	> 100	
